Results taken from patent US9896441B2 (Lycera Corporation, priority 2014, dated 2018).
Each block holds one molecule with its values, some of them ahead of it.

Assays:
[1] = target: T1, RORγ-LBD (Homo sapiens, UniProt P51449); assay: RORγ-Ligand Binding Domain (LBD) TR-FRET Assay; format: biochemical; conditions: for TR-FRET Assay Max Response: maximum response;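 for TR-FRET Assay Max Response: 665/615 nm signal ratio set to 100 without ursolic acid or test compound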
T1 construct: made in house; host or cells: SF9 cells (baculovirus); used as diluted lysate
T1 sequence (P51449 269-508 limits assumed): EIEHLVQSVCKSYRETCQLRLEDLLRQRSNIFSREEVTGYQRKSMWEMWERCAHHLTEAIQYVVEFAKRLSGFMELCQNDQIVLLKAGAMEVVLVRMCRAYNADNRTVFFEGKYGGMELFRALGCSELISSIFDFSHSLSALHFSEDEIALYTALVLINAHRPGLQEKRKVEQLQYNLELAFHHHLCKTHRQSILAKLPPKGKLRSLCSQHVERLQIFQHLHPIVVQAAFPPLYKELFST
Procedure, shortened: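 TR-FRET read-out using a biotin-tagged SRC1 coactivator LXXLL peptide (200 nM final), with the antagonist ursolic acid present at 2 μM final. Receptor is His-tagged LBD expressed in SF9 cells, ~3 nM final in pH 7.0 Tris/KCl/EDTA/DTT/BSA buffer; compounds in 1% DMSO final.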

[2] = target: T2, Gal4-RORγ-LBD (Homo sapiens, UniProt P51449); assay: Gal4-RORγ Luciferase Reporter Assay in HEK-293T Cells; format: cell-based; conditions: HEK-293 cells; for Gal4-RORγ Assay Max Response: maximum response
T2 construct: expressed in transfected cells
T2 sequence (P51449 269-508 limits assumed): T1 sequence (P51449 269-508 limits assumed)
Procedure: Assay procedures and results are described below.
In the following protocol, HEK-293 cells were transfected with a construct comprising the Gal4 DNA binding domain fused to the ligand binding domain of RORγ (Gal4-RORγ-LBD) in a pcDNA3.1neo plasmid, and also with a reporter construct comprising pGL4.31 Gal4-luciferase (Promega). Control cells were prepared similarly using empty pcDNA3.1neo and pGL4.31 vectors.
Trans-IT reagent (Mirus, 60 μL) at room temperature was added drop wise to OptiMEM (Invitrogen, 1.5 ml). This reagent mixture was mixed by inversion then incubated for 5 to 30 minutes at room temperature. It then was added to a solution of both expression vectors (5 μg each), mixed, and incubated at room temperature for about 20 minutes. HEK-293 cells were harvested from incubation flasks by removing the media, treating with TrypLE Express (Invitrogen), and incubating until the cells detached from the bottom of the flask (approximately 2-5 minutes). 10 Million cells were collected by centrifugation and re-suspended in 10 mL of Dulbecco's Modified Eagle Medium, High Glucose (DMEM, Invitrogen) containing 10% Fetal Bovine Serum and 100 IU each of penicillin and streptomycin. The re-suspended cells and the transfection mixture were added to a T75 flask, mixed and incubated overnight at 37° C. and 5% CO2.
The cells were harvested as described above, counted, and centrifuged to obtain the desired number of cells, then re-suspended in complete growth media at 0.75×10^6 cells/mL. The RORγ antagonist, ursolic acid, was added to the cells at a final concentration of […]. Cells were plated at 20 µL of cell suspension/well (10,000-15,000 cells/well) in white tissue culture treated 384 well plates. Test compounds were dissolved at 10 mM in DMSO then diluted into complete growth medium to 5× the final intended test concentration. These drug stock solutions, 5 µL/well were added to the tissue culture plate. The final DMSO concentration was 0.2%. The plates were briefly centrifuged then incubated overnight at 37° C. and 5% CO2. To conduct the assay, the tissue culture plates were allowed to equilibrate to room temperature and One-Glo luciferase reagent (Promega, 25 µL/well) was added. The plates were briefly centrifuged then incubated at room temperature for 10 minutes. The luciferase intensity was read on an Envision plate reader (Perkin Elmer). […] The luciferase signal in the absence of ursolic acid or test compound is defined at 100. The Max Response is the upper plateau in the signal as determined by line-fit using a 4-parameter logistic model in PRISM (GraphPad).

[3] = luciferase reporter, with ursolic acid
[4] = luciferase reporter, in presence of ursolic acid

EC50 ([1]; RORγ-LBD TR-FRET): < 500 nM | EC50 [2, 3]: < 500 nM
Structure (SMILES): CCOc1nn(CC)cc1S(=O)(=O)N1C[C@H](CCC(=O)O)Oc2ccc(/C=C/c3c(Cl)cccc3Cl)cc21 [Example 89CR, (S,E)-3-(6-(2,6-dichlorostyryl)-4-((3-ethoxy-1-ethyl-1H-pyrazol-4-yl)sulfonyl)-3,4-dihydro-2H-benzo[b][1,4]oxazin-2-yl)-propanoic acid]

EC50 ([1]; with 2 μM ursolic acid (RORγ antagonist), highest test concentration 10 μM): < 500 nM | EC50 ([2]; ursolic acid present, luciferase readout): < 500 nM
Structure (SMILES): C/C(=C\c1ccc2c(c1)N(S(=O)(=O)c1cccc(C(F)(F)F)c1)C[C@H](CNC(=O)N1CCOCC1)O2)c1c(F)cccc1Cl [Example 116N, (S,E)-N-((6-(2-(2-chloro-6-fluorophenyl)prop-1-en-1-yl)-4-((3-(trifluoromethyl)phenyl)sulfonyl)-3,4-dihydro-2H-benzo[b][1,4]-oxazin-2-yl)methyl)morpholine-4-carboxamide]

EC50 ([1]; RORγ-LBD TR-FRET): < 500 nM | EC50 [2, 3]: 500 to 5000 nM
Structure (SMILES): O=C(O)CC[C@H]1CN(S(=O)(=O)c2cccc(C(F)(F)F)c2)c2cc(/C=C/c3cccnc3C(F)(F)F)ccc2O1 [Example 89CK, (S,E)-3-(4-((3-(trifluoromethyl)-phenyl)sulfonyl)-6-(2-(2-(trifluoromethyl)pyridin-3-yl)vinyl)-3,4-dihydro-2H-benzo[b][1,4]oxazin-2-yl)propanoic acid]

EC50 ([1]; RORγ-LBD TR-FRET assay): < 500 nM | TR-FRET Assay Max Response ([1]; RORγ-LBD TR-FRET assay): **** (a value greater than 200) | EC50 [2, 4]: 500 to 5000 nM
Structure (SMILES): CC/C(C)=C\c1ccc2c(c1)N(S(=O)(=O)c1cccc(C(F)(F)F)c1)C[C@H](CCC(=O)OC)O2 [Example 191C, methyl (S,Z)-3-(6-(2-methylbut-1-en-1-yl)-4-((3-(trifluoromethyl)phenyl)-sulfonyl)-3,4-dihydro-2H-benzo[b][1,4]oxazin-2-yl)propanoate]
Gal4-RORγ Assay Max Response [2, 4]: ** (a value in the range of greater than 90 to 150)

EC50 ([1]; RORγ-LBD TR-FRET): < 500 nM | EC50 [2, 3]: < 500 nM
Structure (SMILES): CC1CCCC/C1=C\c1ccc2c(c1)N(S(=O)(=O)c1cc(C(F)(F)F)cnc1OCCO)C[C@H](CCC(=O)O)O2 (some centres unmarked) [Example 95R]

EC50 ([1]; RORγ-LBD TR-FRET assay): < 500 nM | EC50 [2, 4]: < 500 nM
Structure (SMILES): C/C(=C\c1ccc2c(c1)N(S(=O)(=O)c1cccc(C(F)(F)F)c1)C[C@H](CC(C)(C)O)O2)c1c(F)cccc1Cl [Example 121A, (S,E)-1-(6-(2-(2-chloro-6-fluorophenyl)prop-1-en-1-yl)-4-((3-(trifluoromethyl)-phenyl)sulfonyl)-3,4-dihydro-2H-benzo[b][1,4]oxazin-2-yl)-2-methylpropan-2-ol]
TR-FRET Assay Max Response ([1]; RORγ-LBD TR-FRET assay): *** (a value in the range of greater than 150 to 200) | Gal4-RORγ Assay Max Response [2, 4]: ** (a value in the range of greater than 90 to 150)

EC50 ([1]; RORγ-LBD TR-FRET): < 500 nM | EC50 [2, 3]: 500 to 5000 nM
Structure (SMILES): Cc1cc(O)cc(C)c1/C=C/c1ccc2c(c1)N(S(=O)(=O)c1cccc(C(F)(F)F)c1)C[C@H](CCC(=O)O)O2 [Example 89BG, (S,E)-3-(6-(4-hydroxy-2,6-dimethylstyryl)-4-((3-(trifluoromethyl)phenyl)sulfonyl)-3,4-dihydro-2H-benzo[b][1,4]oxazin-2-yl)propanoic acid]

Further lines, the molecule ahead of its results:

Structure (SMILES): CC(=O)N[C@@H]1Cc2ccc(/C=C(\C)c3c(F)cccc3Cl)cc2N(S(=O)(=O)c2cccc(C(F)(F)F)c2)C1 [Example 165, (R,E)-N-(7-(2-(2-Chloro-6-fluorophenyl)prop-1-en-1-yl)-1-((3-(trifluoromethyl)phenyl)sulfonyl)-1,2,3,4-tetrahydroquinolin-3-yl)acetamide]
EC50 ([1]; RORγ-LBD TR-FRET assay): < 500 nM | TR-FRET Assay Max Response ([1]; RORγ-LBD TR-FRET assay): *** (a value in the range of greater than 150 to 200) | EC50 [2, 4]: < 500 nM | Gal4-RORγ Assay Max Response [2, 4]: * (a value in the range of 30 to 90)

Structure (SMILES): COC(=O)CC[C@H]1CN(S(=O)(=O)c2cccc(OC(F)F)c2)c2cc(/C=C(\C)c3c(F)cccc3Cl)c(F)cc2O1 [Example 43, (S,E)-Methyl 3-(6-(2-(2-chloro-6-fluorophenyl)prop-1-en-1-yl)-4-((3-(difluoromethoxy)phenyl)sulfonyl)-7-fluoro-3,4-dihydro-2H-benzo[b][1,4]oxazin-2-yl)propanoate]
EC50 ([1]; RORγ-LBD TR-FRET): < 500 nM | EC50 [2, 3]: < 500 nM

Structure (SMILES): C/C(=C\c1ccc2c(c1)N(S(=O)(=O)c1cccc(C(F)(F)F)c1)C[C@H](CCN)O2)c1c(F)cccc1Cl [Example 111, (S,E)-2-(6-(2-(2-Chloro-6-fluorophenyl)prop-1-en-1-yl)-4-((3-(trifluoromethyl)phenyl)sulfonyl)-3,4-dihydro-2H-benzo[b][1,4]oxazin-2-yl)ethan-1-amine]
EC50 ([1]; RORγ-LBD TR-FRET assay): < 500 nM | TR-FRET Assay Max Response ([1]; RORγ-LBD TR-FRET assay): *** (a value in the range of greater than 150 to 200) | EC50 [2, 4]: 500 to 5000 nM | Gal4-RORγ Assay Max Response [2, 4]: ** (a value in the range of greater than 90 to 150)

Structure (SMILES): O=S(=O)(c1cccc(C(F)(F)F)c1)N1C[C@H](O)Cc2ccc(/C=C/c3c(F)cccc3Cl)cc21 [Example 163, (R,E)-7-(2-Chloro-6-fluorostyryl)-1-((3-(trifluoromethyl)phenyl)sulfonyl)-1,2,3,4-tetrahydroquinolin-3-ol]
EC50 ([1]; RORγ-LBD TR-FRET assay): < 500 nM | TR-FRET Assay Max Response ([1]; RORγ-LBD TR-FRET assay): ** (a value in the range of greater than 90 to 150) | EC50 [2, 4]: < 500 nM | Gal4-RORγ Assay Max Response [2, 4]: ** (a value in the range of greater than 90 to 150)

Structure (SMILES): CCOc1nn2c(c1S(=O)(=O)N1C[C@H](CCC(=O)O)Oc3ccc(/C=C(\C)c4c(F)cccc4Cl)cc31)CCCC2 [Example 66, (S,E)-3-(6-(2-(2-Chloro-6-fluorophenyl)prop-1-en-1-yl)-4-((2-ethoxy-4,5,6,7-tetrahydropyrazolo[1,5-a]pyridin-3-yl)sulfonyl)-3,4-dihydro-2H-benzo[b][1,4]oxazin-2-yl)propanoic acid]
EC50 [2, 3]: < 500 nM

Structure (SMILES): CC/C(=C\c1ccc2c(c1)N(S(=O)(=O)c1cccc(C(F)(F)F)c1)C[C@H](CCC(=O)OC)O2)c1ccccc1 [Example 36B, methyl (S,E)-3-(6-(2-phenylbut-1-en-1-yl)-4-((3-(trifluoromethyl)-phenyl)sulfonyl)-3,4-dihydro-2H-benzo[b][1,4]oxazin-2-yl)propanoate]
EC50 [2, 3]: > 10000 nM

Structure (SMILES): COC(=O)CC[C@H]1CN(S(=O)(=O)c2cccc(C(F)(F)F)c2)c2cc(/C=C(\C)c3ccccc3OC)ccc2O1 [Example 86AJ, (S,E)-methyl 3-(6-(2-(2-methoxyphenyl)prop-1-en-1-yl)-4-((3-(trifluoromethyl)phenyl)sulfonyl)-3,4-dihydro-2H-benzo[b][1,4]-oxazin-2-yl)propanoate]
EC50 [2, 3]: < 500 nM

Structure (SMILES): CCOc1nn2c(c1S(=O)(=O)N1C[C@H](CCC(=O)OC)Oc3ccc(/C=C(\C)c4c(F)cccc4Cl)cc31)CCCC2 [Example 65, Methyl (S,E)-3-(6-(2-(2-chloro-6-fluorophenyl)prop-1-en-1-yl)-4-((2-ethoxy-4,5,6,7-tetrahydropyrazolo[1,5-a]pyridin-3-yl)sulfonyl)-3,4-dihydro-2H-benzo[b][1,4]oxazin-2-yl)propanoate]
EC50 [2, 3]: 500 to 5000 nM

Structure (SMILES): COc1cc(S(=O)(=O)N2C[C@H](CCC(=O)O)Oc3ccc(/C=C(\C)C4CCCCC4)cc32)ccc1F [Example 190, (S,E)-3-(6-(2-cyclohexylprop-1-en-1-yl)-4-((4-fluoro-3-methoxyphenyl)sulfonyl)-3,4-dihydro-2H-benzo[b][1,4]oxazin-2-yl)propanoic acid]
EC50 [2, 4]: > 10000 nM

Structure (SMILES): C/C(=C\c1ccc2c(c1)N(S(=O)(=O)c1cccc(C(F)(F)F)c1)C[C@H](CCC(=O)O)O2)c1c(Cl)cccc1Cl [Example 86AE, (S,E)-3-(6-(2-(2,6-dichlorophenyl)prop-1-en-1-yl)-4-((3-(trifluoromethyl)phenyl)-sulfonyl)-3,4-dihydro-2H-benzo[b][1,4]oxazin-2-yl)propanoic acid]
EC50 [2, 3]: < 500 nM
